These results are taken from US6605634B2 (Amgen, Inc., priority 1996, dated 2003).

This experiment concerns production of tumor necrosis factor (TNF) by monocytes activated with bacterial lipopolysaccharide (LPS). The experiment can be described thus: Lipopolysaccharide-activated Monocyte TNF Production Assay. The experiment is classed as cell-based. The conditions noted are these: Homo sapiens, TNF in culture supernatants by ELISA, read-out: IC50 (concentration of test compounds causing a 50% reduction in TNF production). The procedure: Lipopolysaccharide-activated Monocyte TNF Production Assay
Test compounds were evaluated in vitro for the ability to inhibit the production of tumor necrosis factor (TNF) by monocytes activated with bacterial lipopolysaccharide (LPS). Fresh residual source leukocytes (a byproduct of plateletpheresis) were obtained from the local blood bank and peripheral blood mononuclear cells (PBMCs) were isolated by density gradient centrifugation on Ficol-Paque Plus (Pharmacia). PBMCs were suspended at 2×10^6/ml in DMEM supplemented to contain 2% FCS (10 mM), 0.3 mg/ml glutamate, 100 U/ml penicillin G and […] streptomycin sulfate (complete media). Cells were plated into Falcon flatbottom 96 well culture plates (200 μl/well) and cultured overnight at 37° C. and 6% CO2. Nonadherent cells were removed by washing with 200 μl/well of fresh medium. Wells containing adherent cells (˜70% monocytes) were replenished with 100 μl of fresh medium.
Preparation of Test Compound Stock Solutions
Test compounds were dissolved in […]. Compound stock solutions were prepared to an initial concentration of […]. Stocks were diluted initially to 20-200 μM in complete media. Nine two-fold serial dilutions of each compound were then prepared in complete medium.
Treatment of Cells with Test Compounds and Activation of TNF Production with Lipopolysaccharide
One hundred microliters of each test compound dilution were added to microtiter wells containing adherent monocytes and 100 μl complete medium. Monocytes were cultured with test compounds for 60 min at which time 25 μl of complete medium containing 30 ng/ml lipopolysaccharide from E. coli K532 were added to each well. Cells were cultured an additional 4 hrs. Culture supernatants were then removed and TNF present in the supernatants was quantified using an ELISA.
Flat bottom 96 well Coming High Binding ELISA plates were coated overnight (4° C.) with 150 μL/well of 3 μg/ml murine anti-human TNFa MAb (R&D Systems #MAB210). Wells were then blocked 1 h at room temperature with 200 μL/well of CaCl2-free ELISA buffer supplemented to contain 20 mg/ml BSA (standard ELISA buffer: […], 150 mM NaCl, 2 mM CaCl2, 0.15 mM thimerosal, pH 7.4). Plates were washed and replenished with 100 μl of test supernatants (diluted 1:3) or standards. Standards consisted of eleven 1.5-fold serial dilutions from a stock of 1 ng/ml recombinant human TNF (R&D Systems). Plates were incubated at room temperature for 1 h on orbital shaker (300 rpm), washed and replenished with 100 μl/well of 0.5 jig/ml goat anti-human TNFa (R&D systems #AB-210-NA) biotinylated at a 4:1 ratio. Plates were incubate for 40 min, washed and replenished with 100 μl/well of alkaline phosphatase-conjugated streptavidin (Jackson ImmunoResearch #016-050-084) at 0.02 μg/ml. Plates were incubated 30 min, washed and replenished with 200 μl well of 1 mg/ml of p-nitrophenyl phosphate. After 30 min, plates were read at 405 nm on a Vmax plate reader.
Standard curve data were fit to a second order polynomial and unknown TNF-a concentrations determined from their OD by solving this equation for concentration. TNF concentrations were then plotted Vs test compound concentration using a second order polynomial. This equation was then used to calculate the concentration of test compounds causing a 50% reduction in TNF production.

Consider `N[C@@H](Cc1csc2ccccc12)C(=O)Nc1ccc2c(-c3ccncc3)c(-c3ccc(F)cc3)[nH]c2n1` [Compound 137, 6-(3′-(3-benzothienyl)-1′-oxo-2′S-aminopropylamino)-3-(4-pyridyl)-2-(4-fluorophenyl)-7-aza-indole], for which the IC50 was less than 20 µM.

For `N[C@@H](CCc1ccccc1)C(=O)Nc1ccc2c(-c3ccncc3)c(-c3ccc(F)cc3)[nH]c2n1` [Compound 139, 6-(4′-phenyl-1′-oxo-2′-(L)-aminobutylamino)-3-(4-pyridyl)-2-(4-fluorophenyl)-7-aza-indole], the IC50 is less than 20 µM.

For `N[C@H](CCc1ccccc1)C(=O)Nc1ccc2c(-c3ccncc3)c(-c3ccc(F)cc3)[nH]c2n1` [Compound 141, 6-(4′-phenyl-1′-oxo-2′-(D)-aminobutylamino)-3-(4-pyridyl)-2-(4-fluorophenyl)-7-aza-indole], the IC50 was less than 20 µM.

As for `CC(C)COC(=O)n1c(-c2ccc(F)cc2)c(-c2ccncc2)c2ccc(NC(=O)CN)nc21` [Compound 143, 6-(2′-amino-1′-oxo-ethylamino)-3-(4-pyridyl)-2-(4-fluorophenyl)-1-isobutoxycarbonyl-7-aza-indole], the IC50 is less than 20 µM.

On to `CC(C)(C)CNc1ccc2c(-c3ccncc3)c(-c3ccc(F)cc3)[nH]c2n1` [Compound 151, 6-(2′,2′-dimethylpropylamino)-3-(4-pyridyl)-2-(4-fluorophenyl)-7-aza-indole], for which the IC50 is less than 20 µM.

As to `CC(C)CCNc1ccc2c(-c3ccncc3)c(-c3ccc(F)cc3)[nH]c2n1` [Compound 152, 6-(isoamylamino)-3-(4-pyridyl)-2-(4-fluorophenyl)-7-aza-indole], the IC50 was less than 20 µM.

Take `CCC(CC)CNc1ccc2c(-c3ccncc3)c(-c3ccc(F)cc3)[nH]c2n1` [Compound 153, 6-(2′-ethylbutylamino)-3-(4-pyridyl)-2-(4-fluorophenyl)-7-aza-indole]: the IC50 was less than 20 µM.

For `Fc1ccc(-c2[nH]c3nc(NCc4cccs4)ccc3c2-c2ccncc2)cc1` [Compound 154, 6-(2′-thienylmethylamino)-3-(4-pyridyl)-2-(4-fluorophenyl)-7-aza-indole], the IC50 is less than 20 µM.

As for `CCNc1ccc2c(-c3ccncc3)c(-c3ccc(F)cc3)[nH]c2n1` [Compound 156, 6-(ethylamino)-3-(4-pyridyl)-2-(4-fluorophenyl)-7-aza-indole], the IC50 was less than 20 µM.

With `Cn1c(-c2ccc(F)cc2)c(-c2ccncc2)c2ccc(NC(=O)CN)nc21` [Compound 158, 6(2′-amino-1′-oxo-ethylamino)-3-(4-pyridyl)-2-(4-fluorophenyl)-1-methyl-7-aza-indole], the IC50 was less than 20 µM.
